Experimental data as given in the NIST ThermoML archive (doi:10.1016/j.fluid.2007.06.006).
Numbers after ± are expanded uncertainties.

Details: Liquid

Structure (SMILES)	vapor or sublimation pressure (355.83 K) [kPa]	vapor or sublimation pressure (365.99 K) [kPa]	vapor or sublimation pressure (373.87 K) [kPa]	vapor or sublimation pressure (380.27 K) [kPa]	vapor or sublimation pressure (385.71 K) [kPa]	vapor or sublimation pressure (390.45 K) [kPa]	vapor or sublimation pressure (392.2 K) [kPa]	vapor or sublimation pressure (377.95 K) [kPa]	vapor or sublimation pressure (389.37 K) [kPa]	vapor or sublimation pressure (398.01 K) [kPa]	vapor or sublimation pressure (405.04 K) [kPa]	vapor or sublimation pressure (411.02 K) [kPa]	vapor or sublimation pressure (416.25 K) [kPa]	vapor or sublimation pressure (418.18 K) [kPa]
COCC(C)O (centres undefined) [1-methoxy-2-propanol]	26.7 ± 0.2	40 ± 0.2	53.3 ± 0.2	66.7 ± 0.2	80 ± 0.2	93.3 ± 0.3	98.7 ± 0.3	–	–	–	–	–	–	–
COCC(C)OC(C)=O (centres undefined) [1-methoxy-2-propyl acetate]	–	–	–	–	–	–	–	26.7 ± 0.2	40 ± 0.2	53.3 ± 0.2	66.7 ± 0.2	80 ± 0.2	93.3 ± 0.3	98.7 ± 0.3
